Data: patent publication US20230054318A1, “PERSONALIZED TUMOR VACCINE AND USE THEREOF FOR CANCER IMMUNOTHERAPY” (priority 2019, published 2023)

Assay: Human Equivalent Dose (HED) calculation based on body surface area
Conditions: for Animal NOAEL: mouse (~20 g)
Source text: Provided herein are methods for calculating HED of the MBTA components based on body surface area.
See details from: Nair A B, Jacob S. A simple practice guide for dose conversion between animals and human. J Basic Clin Pharma 2016; 7:27-31
A formula to calculate HED is shown as follows:
HED(mg/kg)=Animal dose(mg/kg)Animal Km/Human Km

Row | Compound | HED/Safety Factor (10) | Maximum Recommended Starting Dose (MRSD, assuming 60 kg adult) | HED (Mouse Km=3, Human Km=37) | Animal NOAEL | NOAEL (mouse)
1 | Mannan | 0.3851 mg/kg | 23.11 mg/day | 3.851 mg/kg | 47.5 mg/kg | –
2 | CCOCc1nc2c(N)nc3ccccc3c2n1CC(C)(C)O [R-848, Resiquimod, reference compound] | – | – | – | – | 1.2 mg/kg
3 | Lipoteichoic acid [LTA, reference compound] | – | – | – | 1.2 mg/kg | –
